From article PMC10888717, “Identification of Novel Non-Nucleoside Inhibitors of Zika Virus NS5 Protein Targeting MTase Activity” (International Journal of Molecular Sciences, 2024)

Target: T1, ZIKV NS5 MTase (Zika virus, UniProt A0A024B7W1)
T1 construct: KJ776791.2, aa 4–278; His6 (N); made in house; host or cells: Escherichia coli T7 Express Iq
Test: ZIKV NS5 MTase radioactive filter-binding assay (2′-O-MTase activity)
Type: biochemical
Details: at least two experiments, read-out: IC50 (half-maximal inhibitory enzymatic concentration)
Protocol: Selected compounds were evaluated in enzymatic inhibition assays against both ZIKV and DENV 2′-O-MTase activity (For details, see Figure S3 in Supplementary Materials). The screening of compounds at a concentration of 50 µM highlighted a higher inhibitory activity against ZIKV MTase. We thus focused our efforts on ZIKV and determined the IC50 values against ZIKV MTase.
Expression and purification of ZIKV NS5 MTase: The coding sequence of the ZIKV NS5 MTase domain (strain H/PF/2013, GenBank accession no. KJ776791.2, aa 4–278) was synthesized by Genscript and cloned into a pQE30 vector (Qiagen, Hilden, Germany) with an N-terminal His6 tag. The protein was expressed and purified following the procedures described in Coutard et al..
Briefly, after expression in Escherichia coli T7 Express Iq (New England BioLabs) in Terrific Broth at 17 °C overnight, bacterial pellets were resuspended in lysis buffer (50 mM Tris-HCl [pH 8], 300 mM NaCl, 5% glycerol, 0.1% Triton, 10 μg/mL DNase I, 2 tablets of EDTA-free antiprotease cocktail [Roche] and 0.25 mg/mL lysozyme). Following cell lysis and clarification, the protein was purified by affinity on immobilized metal affinity chromatography (IMAC, His prep column [GE Healthcare]), followed by size exclusion chromatography (Superdex S75 HR 16/20 column [GE Healthcare]). The NS5-MTase was concentrated and stored at −20 °C after adding glycerol to a final concentration of 40%.
Filter-binding assay: The transfer of tritiated methyl from ^[3H]SAM onto RNA substrate was monitored by a filter-binding assay (FBA), performed according to the method described previously. FBA was carried out in a reaction mixture [40 mM Tris-HCl (pH 8.0), 1 mM DTT, 2 μM SAM, and 0.1 μM 3H-SAM (Perkin Elmer, Shelton, CT, USA)] in the presence of 0.7 μM synthetic ^7mGpppAC4 and ZIKV NS5 MTase (500 nM). The enzyme was first mixed with an increasing concentration of inhibitors, previously suspended in dimethyl sulfoxide (DMSO), before the addition of RNA substrate and SAM, and then incubated at 30 °C. The final DMSO concentration in reactions was 5%. Reaction mixtures were stopped after 30 min incubation by their 10-fold dilution in ice-cold water. Samples were transferred to diethylaminoethyl (DEAE) filtermat (Perkin Elmer, Shelton, CT, USA) using a Filtermat Harvester (Packard Instruments, Meriden, CT, USA). The RNA-retaining mats were washed twice with 10 mM ammonium formate pH 8.0, twice with water, and once with ethanol before drying. They were soaked with scintillation fluid (Perkin Elmer, Shelton, CT, USA), and 3H-methyl transfer to the RNA substrates was determined using a Wallac MicroBeta TriLux Liquid Scintillation Counter (Perkin Elmer, Shelton, CT, USA). For IC50 measurements, values were normalized and fitted with Prism (GraphPad software version 10.1.1) using the following equation: Y = 100/(1 + ((X/IC50) ^ Hillslope)).

T1 sequence (A0A024B7W1 2524-2798): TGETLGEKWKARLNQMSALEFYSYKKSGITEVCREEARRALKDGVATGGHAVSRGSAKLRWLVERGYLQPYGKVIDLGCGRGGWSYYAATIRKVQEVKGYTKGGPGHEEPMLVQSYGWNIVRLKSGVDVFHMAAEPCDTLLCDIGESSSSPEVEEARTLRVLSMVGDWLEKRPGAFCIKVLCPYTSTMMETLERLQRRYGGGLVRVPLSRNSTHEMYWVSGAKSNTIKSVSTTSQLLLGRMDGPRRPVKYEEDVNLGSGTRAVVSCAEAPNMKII

SMILES: CN1C(=O)c2ccc(NC(=O)c3cc4cccc(Cl)c4s3)cc2C1=O [Compound 17]
- IC50: 11.4 µM
